Test [1] relates to primary human fibroblasts derived from IPF patients (LL29 cells), α-smooth muscle actin (αSMA). Briefly: Inhibition of the fibrotic process: TGF-β1-treated primary human fibroblasts from IPF patients, αSMA staining. Format: cell-based. The settings on record: Fibroblast, 96 h, 4 days; for EC50: LL29 fibroblasts from IPF patients, TGF-β1 20 ng/mL, inhibition of fibrotic process; for inhibition at 10 µM: LL29 fibroblasts, TGF-β1 treated, read-out: percent inhibition at 10 μM (given for EC50 of >10 μM). Put shortly: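 Read-out: fraction of αSMA-positive cells by high-content imaging, SYTOX-stained dead cells excluded, normalized to TGF-β1/DMSO wells. Cells got compound (10 μM–[…], 11 points) plus TGF-β1 20 ng/mL for 4 days. EC50 from triplicate curves; above 10 μM, % inhibition at 10 μM given.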

Test [2] relates to IL-6 (THP-1 cells). Briefly: Inhibition of IL-6 in LPS-stimulated THP-1 monocytes (HTRF). In kind it is cell-based. The conditions noted are these: Homo sapiens; for EC50: LPS 500 ng/mL, IL-6 by HTRF; for inhibition at 10 µM: LPS stimulated, IL-6, at 10 μM, read-out: percent inhibition at 10 μM (given for EC50 of >10 μM). The method in brief:
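IL-6 release was read as the HTRF 665/620 nm ratio after 22 h of 500 ng/mL LPS at 37 °C. Before stimulation, THP-1 cells kept 24 h in 1% FBS were exposed 2 h to a 10-point 1:3 compound series starting at 10 μM, in 0.1% DMSO. Four-parameter EC50s came from DMSO-normalized duplicates, with % inhibition at 10 μM reported beyond 10 μM.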

Take `c1cncc(-c2ccc3[nH]nc(-c4nc5c(-c6cccnc6)ccnc5[nH]4)c3n2)c1` [Compound 88, 5-(pyridin-3-yl)-3-(7-(pyridin-3-yl)-3H-imidazo[4,5-b]pyridin-2-yl)-1H-pyrazolo [4,3-b]pyridine]: the figures for the EC50 in test [1] and in test [2] were 747 nM and more than 10000 nM, respectively. Further, the inhibition at 10 µM in test [2] is 36.6%.

In turn, `Clc1ccc(-c2ccnc3[nH]c(-c4n[nH]c5ccc(-c6cncc(CN7CCCC7)c6)nc45)nc23)s1` [Compound 1049, 3-(7-(5-chlorothiophen-2-yl)-3H-imidazo[4,5-b]pyridin-2-yl)-5-(5-(pyrrolidin-1-ylmethyl)pyridin-3-yl)-1H-pyrazolo[4,3-b]pyridine] displayed an EC50 in test [1] of 681 nM. Besides, in test [2], the EC50 was more than 10000 nM and the inhibition at 10 µM is 36.2%.

Regarding `Cc1ccncc1-c1ccc2[nH]nc(-c3nc4c(-c5ccsc5)ccnc4[nH]3)c2n1` [Compound 285, 5-(4-methylpyridin-3-yl)-3-(7-(thiophen-3-yl)-3H-imidazo[4,5-b]pyridin-2-yl)-1H-pyrazolo[4,3-b]pyridine], the EC50 is 2050 nM in test [1] and 9880 nM in test [2].

Turning to `COc1cccc(-c2ccnc3[nH]c(-c4n[nH]c5ccc(-c6cccnc6)nc45)nc23)c1` [Compound 994, 3-(7-(3-methoxyphenyl)-3H-imidazo[4,5-b]pyridin-2-yl)-5-(pyridin-3-yl)-1H-pyrazolo[4,3-b]pyridine], the EC50 in test [1] was found to be 590 nM. Also, in test [2], the concentration for a half-maximal effect (EC50) was more than 10000 nM and the inhibition at 10 µM amounted to 50.2%.

For `Cc1ccc(-c2ccnc3[nH]c(-c4n[nH]c5ccc(-c6cncc(N)c6)nc45)nc23)s1` [Compound 395, 5-(3-(7-(5-methylthiophen-2-yl)-3H-imidazo[4,5-b]pyridin-2-yl)-1H-pyrazolo[4,3-b]pyridin-5-yl)pyridin-3-amine], the figures for the EC50 in test [1] and in test [2] were 97 nM and 250 nM, respectively.

In test [1], `CS(=O)(=O)NCc1cc(F)cc(-c2ccnc3[nH]c(-c4n[nH]c5ccc(-c6cncc(CNCc7ccccc7)c6)nc45)nc23)c1` [Compound 500, N-(3-(2-(5-(5-((Benzylamino)methyl)pyridin-3-yl)-1H-pyrazolo[4,3-b]pyridin-3-yl)-3H-imidazo[4,5-b]pyridin-7-yl)-5-fluorobenzyl)methanesulfonamide] displayed an EC50 of 9260 nM. For the same compound, in test [2], the EC50 is more than 10000 nM and the inhibition at 10 µM is 45.6%.

Turning to `O=C(Nc1cncc(-c2ccc3[nH]nc(-c4nc5c(N6CCCCC6)ccnc5[nH]4)c3n2)c1)C1CC1` [Compound 188, N-(5-(3-(7-(Piperidin-1-yl)-3H-imidazo[4,5-b]pyridin-2-yl)-1H-pyrazolo [4,3-b]pyridin-5-yl)pyridin-3-yl)cyclopropanecarboxamide], in test [1], the EC50 is more than 10000 nM and the inhibition at 10 µM came to 0%. In test [2], the EC50 was more than 10000 nM and the inhibition at 10 µM is 28%.

Regarding `CCNCc1cncc(-c2ccc3[nH]nc(-c4nc5c(-c6ccoc6)ccnc5[nH]4)c3n2)c1` [Compound 314, N-((5-(3-(7-(furan-3-yl)-3H-imidazo[4,5-b]pyridin-2-yl)-1H-pyrazolo[4,3-b]pyridin-5-yl)pyridin-3-yl)methyl)ethanamine], the EC50 in test [1] and in test [2] was more than 10000 nM each time. In addition, the values for the inhibition at 10 µM in test [1] and in test [2] were 0% and 23.9%, respectively.

For `Fc1cccc(-c2ccnc3[nH]c(-c4n[nH]c5ccc(-c6cncc(OCCN7CCCC7)c6)nc45)nc23)c1` [Compound 514, 3-(7-(3-Fluorophenyl)-3H-imidazo[4,5-b]pyridin-2-yl)-5-(5-(2-(pyrrolidin-1-yl)ethoxy)pyridin-3-yl)-1H-pyrazolo[4,3-b]pyridine], in test [1], the EC50 was more than 10000 nM and the inhibition at 10 µM was found to be 0%. Further, in test [2], the EC50 was more than 10000 nM and the inhibition at 10 µM was 49.5%.

With `CC(C)Nc1cncc(-c2ccc3[nH]nc(-c4nc5c(-c6cc(F)cc(NCCN(C)C)c6)ccnc5[nH]4)c3n2)c1` [Compound 460, N^1-(3-fluoro-5-(2-(5-(5-(isopropylamino)pyridin-3-yl)-1H-pyrazolo[4,3-b]pyridin-3-yl)-3H-imidazo[4,5-b]pyridin-7-yl)phenyl)-N^2,N^2-dimethylethane-1,2-diamine], the figures for the half-maximal effective concentration (EC50) in test [1] and in test [2] were 2450 nM and 1800 nM, respectively.

With `CC(C)CC(=O)Nc1cncc(-c2ccc3[nH]nc(-c4nc5c(-c6cccc(F)c6)ccnc5[nH]4)c3n2)c1` [Compound 2, N-(5-(3-(7-(3-fluorophenyl)-3H-imidazo[4,5-b]pyridin-2-yl)-1H-pyrazolo [4,3-b]pyridin-5-yl)pyridin-3-yl)-3-methylbutanamide], the EC50 was determined as 292 nM in test [1] and 296 nM in test [2].

In test [1], `Fc1cccc(-c2ccnc3[nH]c(-c4n[nH]c5ccc(-c6cnccn6)nc45)nc23)c1` [Compound 520, 3-(7-(3-fluorophenyl)-3H-imidazo[4,5-b]pyridin-2-yl)-5-(pyrazin-2-yl)-1H-pyrazolo[4,3-b]pyridine] had an EC50 of 5330 nM. Further, in test [2], the concentration for a half-maximal effect (EC50) is more than 10000 nM and the inhibition at 10 µM stood at 19.5%.

With `CC(C)(C)C(=O)Nc1cncc(-c2ccc3[nH]nc(-c4nc5c(-c6ccc(Cl)s6)ccnc5[nH]4)c3n2)c1` [Compound 1043, N-(5-(3-(7-(5-chlorothiophen-2-yl)-3H-imidazo[4,5-b]pyridin-2-yl)-1H-pyrazolo [4,3-b]pyridin-5-yl)pyridin-3-yl)pivalamide], the EC50 in test [1] was found to be 419 nM. In test [2], the EC50 was more than 10000 nM and the inhibition at 10 µM was 7.6%.

For `Cc1ccncc1-c1ccc2[nH]nc(-c3nc4c(-c5cc(F)cc(CNS(C)(=O)=O)c5)ccnc4[nH]3)c2n1` [Compound 481, N-(3-fluoro-5-(2-(5-(4-methylpyridin-3-yl)-1H-pyrazolo[4,3-b]pyridin-3-yl)-3H-imidazo[4,5-b]pyridin-7-yl)benzyl)methanesulfonamide], the EC50 was 5180 nM in test [1] and 1030 nM in test [2].

For `Fc1ccc(-c2ccnc3[nH]c(-c4n[nH]c5ccc(-c6cncc(CN7CCCC7)c6)nc45)nc23)cc1` [Compound 42, 3-(7-(4-fluorophenyl)-3H-imidazo[4,5-b]pyridin-2-yl)-5-(5-(pyrrolidin-1-ylmethyl)pyridin-3-yl)-1H-pyrazolo[4,3-b]pyridine], the EC50 in test [1] is 1850 nM; in test [2], more than 10000 nM. In test [2], the inhibition at 10 µM was 46.1%.

Regarding `Fc1ccccc1-c1ccnc2[nH]c(-c3n[nH]c4ccc(-c5ccccn5)nc34)nc12` [Compound 84, 3-(7-(2-Fluorophenyl)-3H-imidazo[4,5-b]pyridin-2-yl)-5-(pyridin-2-yl)-1H-pyrazolo[4,3-b]pyridine], in test [1], the EC50 was more than 10000 nM and the inhibition at 10 µM came out at 29.4%. For the same compound, in test [2], the EC50 was more than 10000 nM and the inhibition at 10 µM was found to be 23%.

As to `O=C(Nc1cncc(-c2ccc3[nH]nc(-c4nc5c(-c6ccsc6)ccnc5[nH]4)c3n2)c1)c1ccccc1` [Compound 291, N-(5-(3-(7-(Thiophen-3-yl)-3H-imidazo[4,5-b]pyridin-2-yl)-1H-pyrazolo [4,3-b]pyridin-5-yl)pyridin-3-yl)benzamide], in test [1], the EC50 was more than 10000 nM and the inhibition at 10 µM is 42.5%. Further, in test [2], the EC50 was more than 10000 nM and the inhibition at 10 µM worked out at 21%.

In the case of `CC(C)Nc1cncc(-c2ccc3[nH]nc(-c4nc5c(-c6ccoc6)ccnc5[nH]4)c3n2)c1` [Compound 320, 5-(3-(7-(furan-3-yl)-3H-imidazo[4,5-b]pyridin-2-yl)-1H-pyrazolo[4,3-b]pyridin-5-yl)-N-isopropylpyridin-3-amine], the EC50 in test [1] is 277 nM; in test [2], 456 nM.

Regarding `Oc1cncc(-c2ccc3[nH]nc(-c4nc5c(-c6cccc(F)c6)ccnc5[nH]4)c3n2)c1` [Compound 517, 5-(3-(7-(3-fluorophenyl)-3H-imidazo[4,5-b]pyridin-2-yl)-1H-pyrazolo[4,3-b]pyridin-5-yl)pyridin-3-ol], the results for the EC50 in test [1] and in test [2] were 1150 nM and 1540 nM, respectively.

Turning to `O=C(Nc1cncc(-c2ccc3[nH]nc(-c4nc5c(-c6ccc(Cl)s6)ccnc5[nH]4)c3n2)c1)C1CCC1` [Compound 1056, N-(5-(3-(7-(5-chlorothiophen-2-yl)-3H-imidazo[4,5-b]pyridin-2-yl)-1H-pyrazolo [4,3-b]pyridin-5-yl)pyridin-3-yl)cyclobutanecarboxamide], the EC50 in test [1] came to 284 nM. In test [2], the 50% effective concentration (EC50) is more than 10000 nM and the inhibition at 10 µM was 40.6%.

In the case of `O=C(Nc1cncc(-c2ccc3[nH]nc(-c4nc5c(-c6cccs6)ccnc5[nH]4)c3n2)c1)C1CC1` [Compound 356, N-(5-(3-(7-(Thiophen-2-yl)-3H-imidazo[4,5-b]pyridin-2-yl)-1H-pyrazolo [4,3-b]pyridin-5-yl)pyridin-3-yl)cyclopropanecarboxamide], the EC50 in test [1] is 4860 nM. Also, in test [2], the EC50 was more than 10000 nM and the inhibition at 10 µM amounted to 38%.

Regarding `COc1cccc(-c2ccnc3[nH]c(-c4n[nH]c5ccc(-c6cncc(NC(=O)CC(C)(C)C)c6)nc45)nc23)c1` [Compound 1006, N-(5-(3-(7-(3-methoxyphenyl)-3H-imidazo[4,5-b]pyridin-2-yl)-1H-pyrazolo[4,3-b]pyridin-5-yl)pyridin-3-yl)-3,3-dimethylbutanamide], in test [1], a half-maximal effect (EC50) was put at 2490 nM. For the same compound, in test [2], the EC50 was more than 10000 nM and the inhibition at 10 µM is 32.7%.

Values taken from patent US10329309B2, “3-(3H-imidazo[4,5-B]pyridin-2-yl)-1H-pyrazolo[4,3-B]pyridines and therapeutic uses thereof” (Samumed, LLC, priority 2015, dated 2019).
